Measured values from ChEMBL document CHEMBL1201862, “PubChem BioAssay data set” (2004).
Active and inactive are the calls of the source.

Tests used:
[1] = molecular target: T1, Tyrosine-protein phosphatase non-receptor type 7 (Homo sapiens, UniProt P35236); test: HePTP (PTPN7) phosphatase inhibitor potency, SAR follow-up, biochemical, set 2 (AID 449736); format: functional
T1 sequence (P35236 whole entry): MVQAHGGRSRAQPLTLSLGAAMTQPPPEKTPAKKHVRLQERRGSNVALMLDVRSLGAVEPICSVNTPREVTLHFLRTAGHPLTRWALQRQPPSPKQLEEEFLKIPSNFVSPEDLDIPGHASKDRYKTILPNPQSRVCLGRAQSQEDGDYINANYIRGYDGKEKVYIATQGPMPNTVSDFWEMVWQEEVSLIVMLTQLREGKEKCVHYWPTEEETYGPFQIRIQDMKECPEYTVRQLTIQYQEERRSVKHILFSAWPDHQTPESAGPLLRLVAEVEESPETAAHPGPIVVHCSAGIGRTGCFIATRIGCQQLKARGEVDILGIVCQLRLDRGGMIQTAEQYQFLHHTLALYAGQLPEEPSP

[2] = molecular target: T2, Kappa-type opioid receptor (Homo sapiens, UniProt P41145); test: KOR agonist analogs, arrestin-GFP redistribution, SAR follow-up, imaging, image-based, set 3 (AID 488833); format: functional
T2 sequence (P41145 whole entry): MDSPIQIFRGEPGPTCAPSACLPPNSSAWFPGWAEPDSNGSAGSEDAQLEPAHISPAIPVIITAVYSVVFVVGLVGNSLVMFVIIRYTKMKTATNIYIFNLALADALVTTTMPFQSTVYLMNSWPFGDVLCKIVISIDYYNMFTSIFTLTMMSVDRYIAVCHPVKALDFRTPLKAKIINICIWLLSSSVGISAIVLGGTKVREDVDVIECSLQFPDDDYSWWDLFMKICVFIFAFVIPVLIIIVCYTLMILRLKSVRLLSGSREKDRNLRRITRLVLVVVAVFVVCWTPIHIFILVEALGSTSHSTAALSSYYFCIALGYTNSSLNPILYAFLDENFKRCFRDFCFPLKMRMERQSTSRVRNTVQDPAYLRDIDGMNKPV

[3] = molecular target: T2, Kappa-type opioid receptor; test: SAR analysis of small molecule agonists of the kappa opioid receptor via a luminescent beta-arrestin assay - Set 3. [Related pubchem assays (depositor defined):AID1777, AID1785, AID1786, AID1966, AID2133, AID2136, AID2284, AID2500]; format: functional
Mu-type opioid receptor = Mu-type opioid receptor (Homo sapiens, UniProt P35372); test: SAR Analysis of Agonists of the MOR Receptor using an Image-Based Assay - Set 3. [Related pubchem assays (depositor defined):AID1777, AID1785, AID1786, AID1966, AID2133, AID2136, AID2284, AID2285, AID2352]; format: functional
Sequence of Mu-type opioid receptor (P35372 whole entry): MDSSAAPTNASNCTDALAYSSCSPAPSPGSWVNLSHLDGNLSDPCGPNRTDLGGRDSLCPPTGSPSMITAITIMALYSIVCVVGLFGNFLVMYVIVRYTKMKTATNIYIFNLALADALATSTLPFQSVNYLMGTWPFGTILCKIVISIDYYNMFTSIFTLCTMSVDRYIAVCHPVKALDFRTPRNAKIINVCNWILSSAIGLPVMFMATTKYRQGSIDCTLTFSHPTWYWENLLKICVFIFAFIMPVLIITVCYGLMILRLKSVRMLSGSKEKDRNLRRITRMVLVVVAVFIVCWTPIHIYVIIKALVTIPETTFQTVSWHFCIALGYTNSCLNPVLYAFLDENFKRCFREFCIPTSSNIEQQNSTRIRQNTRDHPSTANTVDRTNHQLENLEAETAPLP

[4] = molecular target: Delta-type opioid receptor (Homo sapiens, UniProt P41143); test: SAR Analysis of Agonists of the DOR Receptor using an Image-Based Assay - Set 3. [Related pubchem assays (depositor defined):AID1777, AID1786]; format: functional
Sequence of Delta-type opioid receptor (P41143 whole entry): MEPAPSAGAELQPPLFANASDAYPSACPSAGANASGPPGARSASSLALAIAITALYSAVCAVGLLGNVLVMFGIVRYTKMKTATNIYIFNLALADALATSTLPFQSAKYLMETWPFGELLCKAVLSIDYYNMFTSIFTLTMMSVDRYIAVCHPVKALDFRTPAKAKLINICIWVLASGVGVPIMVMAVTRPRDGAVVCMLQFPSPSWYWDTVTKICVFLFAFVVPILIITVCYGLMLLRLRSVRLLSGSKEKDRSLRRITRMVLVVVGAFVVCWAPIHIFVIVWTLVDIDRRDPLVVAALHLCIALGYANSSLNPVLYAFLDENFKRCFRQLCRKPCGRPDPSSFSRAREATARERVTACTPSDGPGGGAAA

[5] = molecular target: Potassium voltage-gated channel subfamily KQT member 2 (Rattus norvegicus, UniProt O88943); test: KCNQ2 channel activators, analog series, SAR follow-up, automated patch clamp, KCNQ2-CHO cells (AID 493113); format: functional
Sequence of Potassium voltage-gated channel subfamily KQT member 2 (O88943 whole entry): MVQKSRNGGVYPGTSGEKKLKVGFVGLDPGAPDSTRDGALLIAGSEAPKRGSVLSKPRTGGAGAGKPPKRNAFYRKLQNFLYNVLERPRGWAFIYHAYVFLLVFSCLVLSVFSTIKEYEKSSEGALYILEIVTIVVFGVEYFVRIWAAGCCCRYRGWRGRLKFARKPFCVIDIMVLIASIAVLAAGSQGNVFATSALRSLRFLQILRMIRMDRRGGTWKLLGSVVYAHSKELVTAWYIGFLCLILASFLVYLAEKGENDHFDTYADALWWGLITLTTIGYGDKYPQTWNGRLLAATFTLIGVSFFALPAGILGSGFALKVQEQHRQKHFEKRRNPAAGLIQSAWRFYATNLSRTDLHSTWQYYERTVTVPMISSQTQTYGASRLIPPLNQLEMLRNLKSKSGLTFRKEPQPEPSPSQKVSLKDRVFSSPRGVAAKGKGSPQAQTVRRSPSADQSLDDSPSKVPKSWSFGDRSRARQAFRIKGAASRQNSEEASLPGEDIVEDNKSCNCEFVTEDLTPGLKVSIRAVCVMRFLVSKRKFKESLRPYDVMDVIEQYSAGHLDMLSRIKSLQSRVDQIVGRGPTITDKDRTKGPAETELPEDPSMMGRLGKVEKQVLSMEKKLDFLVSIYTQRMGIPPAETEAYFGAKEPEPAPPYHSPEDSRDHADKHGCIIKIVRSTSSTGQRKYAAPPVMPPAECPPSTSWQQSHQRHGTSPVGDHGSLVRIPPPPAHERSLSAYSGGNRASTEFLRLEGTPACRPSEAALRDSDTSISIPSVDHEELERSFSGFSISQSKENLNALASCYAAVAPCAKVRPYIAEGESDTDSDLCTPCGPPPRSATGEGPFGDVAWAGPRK

HEK293 [6] = test: cytotoxicity in HEK293T NF-kB-Luc cells, SAR follow-up, cytotoxicity control for NF-kB activator project, cell-based, resazurin fluorescence (AID 493251); format: functional; details: Homo sapiens
HEK293 [7] = test: SAR Analysis of small molecule inhibitors of B-cell specific antigen receptor-induced NF-kB activation in a HEK-293T cell line using a luminescence assay - Set 2. [Related pubchem assays (depositor defined):AID435022, AID435025, AID489021]; format: functional, cell-based; details: Homo sapiens
Jurkat = test: SAR Analysis of small molecule inhibitors of […] specific antigen receptor-induced NF-kB activation in a Jurkat cell line using a luminescence assay - Set 3. [Related pubchem assays (depositor defined):AID435022, AID435025, AID465]; format: functional, cell-based; details: Homo sapiens
[8] = Luminescence Cell-Based Dose Retest to Confirm Inhibitors of Cancer Stem Cells. [Related pubchem assays (depositor defined):AID2717, AID2721]; format: functional; details: Homo sapiens
[9] = cytotoxicity in HMLE control line with eGFP shRNA, dose response, counter-screen for HMLE_sh_ECad selective toxicity project, cell-based, HMLE_sh_eGFP, luminescence (AID 463074); format: functional, Homo sapiens;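 note: HMLE human mammary epithelial cells expressing control shRNA against eGFP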
Cytochrome P450 1A2 = molecular target: T3, Cytochrome P450 1A2 (Homo sapiens, UniProt P05177);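 note: PubChem cytochrome P450 panel assay, CYP1A2 panel member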
T3 sequence (P05177 whole entry): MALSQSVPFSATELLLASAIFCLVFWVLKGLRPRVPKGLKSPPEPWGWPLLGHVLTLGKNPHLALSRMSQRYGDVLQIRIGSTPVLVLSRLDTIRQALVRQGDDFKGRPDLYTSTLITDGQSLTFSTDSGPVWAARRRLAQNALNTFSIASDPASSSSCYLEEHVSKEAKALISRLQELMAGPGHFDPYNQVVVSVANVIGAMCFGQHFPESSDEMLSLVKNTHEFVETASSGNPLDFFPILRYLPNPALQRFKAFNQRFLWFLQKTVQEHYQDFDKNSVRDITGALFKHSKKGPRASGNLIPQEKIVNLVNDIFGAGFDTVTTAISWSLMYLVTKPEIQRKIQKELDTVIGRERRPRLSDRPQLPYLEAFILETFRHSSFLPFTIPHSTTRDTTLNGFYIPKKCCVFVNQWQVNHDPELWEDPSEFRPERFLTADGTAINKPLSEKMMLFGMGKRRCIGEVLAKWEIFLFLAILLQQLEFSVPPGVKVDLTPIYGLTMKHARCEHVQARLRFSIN

Cytochrome P450 2D6 = Cytochrome P450 2D6 (Homo sapiens, UniProt P10635);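 note: CYP2D6 member of a cytochrome P450 panel assay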
Sequence of Cytochrome P450 2D6 (P10635 whole entry): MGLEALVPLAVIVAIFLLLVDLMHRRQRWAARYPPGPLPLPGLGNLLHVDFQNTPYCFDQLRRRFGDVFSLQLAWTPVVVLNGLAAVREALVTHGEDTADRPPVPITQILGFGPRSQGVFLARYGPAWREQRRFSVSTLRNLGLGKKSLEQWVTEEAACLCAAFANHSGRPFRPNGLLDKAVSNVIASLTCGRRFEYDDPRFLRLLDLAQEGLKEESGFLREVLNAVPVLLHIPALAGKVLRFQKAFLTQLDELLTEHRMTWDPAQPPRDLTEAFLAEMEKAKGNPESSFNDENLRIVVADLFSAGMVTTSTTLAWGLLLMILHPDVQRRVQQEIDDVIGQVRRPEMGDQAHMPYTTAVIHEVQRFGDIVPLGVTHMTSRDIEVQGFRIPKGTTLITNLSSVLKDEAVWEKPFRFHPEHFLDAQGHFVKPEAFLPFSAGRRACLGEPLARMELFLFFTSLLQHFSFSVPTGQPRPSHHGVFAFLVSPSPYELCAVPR

Compound: NS(=O)(=O)c1ccc(NC(=S)NC2CCCc3ccccc32)cc1 (stereo not drawn)
- IC50 [1]: 66.5 µM (active)

Compound: CC(=O)Oc1ccc(CSc2nnc(-c3ccccn3)n2Cc2ccco2)cc1
- EC50 [2]: > 32 µM (inactive)
- EC50 [3]: > 20 µM (inactive)
- EC50 (Mu-type opioid receptor): > 32 µM (inactive)
- EC50 [4]: > 64 µM (inactive)

Compound: O=C(Nc1ccc(F)cc1F)C1CC2CCC1C2 (stereo not drawn)
- EC50 [5]: 10 µM (active)

Compound: CCOc1ccc(-c2nc(CSCC(=O)NC3CCCC(C)C3C)c(C)o2)cc1 (stereo not drawn)
- IC50 (HEK293 [6]): 38.9 µM (inactive)
- IC50 (HEK293 [7]): 8.81 µM (active)
- IC50 (Jurkat): 39.3 µM (inactive)

Compound: C/C(=N\Nc1cccc(Cl)c1)C1(C)N(O)C(C)(C)C(c2ccco2)=[N+]1[O-] (stereo not drawn)
- AC50 [8]: 1.06 µM (active)
- AC50 [9]: 1.5 µM (inconclusive)

Compound: Nc1nnc(-c2cccc(Cl)c2Cl)c(N)n1 [LAMOTRIGINE]
- AC50 (Cytochrome P450 1A2): inactive
- AC50 (Cytochrome P450 2D6): 6.31 µM (active)
